The values below come from patent US10143201B2, “Fungicidal compositions” (Syngenta Crop Protection LLC, priority 2007, dated 2018).

Like-named read-outs stand apart in the source and are kept apart here.

Type in all cases: cell-based
One experiment concerns Pyrenophora teres. Briefly: Fungicidal action against Pyrenophora teres (net blotch), microtiter growth inhibition. The following applies: for inhibition at 0.125 ppm / inhibition at 0.5 ppm / inhibition at 1 ppm / inhibition at 0.0625 ppm: read-out: % activity; for inhibition at 0.5 ppm: 0.5000 ppm; for % activity: alone; for inhibition at 0.25 ppm: 0.2500 ppm. Here is the method: Example B6: Fungicidal Action Against Pyrenophora teres (Net Blotch)
(§1) Conidia of the fungus from cryogenic storage are directly mixed into nutrient broth (PDB potato dextrose broth). After placing a (DMSO) solution of the test compounds into a microtiter plate (96-well format) the nutrient broth containing the fungal spores is added. The test plates are incubated at 24° C. and the inhibition of growth is evaluated after 4 days. The expected fungicidal action is calculated according to the Colby method.

Experiment [1] deals with Pseudocercosporella herpotrichoides (syn. Tapesia yallundae). Nature of the experiment: Fungicidal action against Pseudocercosporella herpotrichoides (eye spot of cereals), microtiter growth inhibition. The procedure: Example B5: Funicidal Action Against Pseudocercosporella herpotrichoides (Syn. Tapesia yallundae), Eye Spot of Cereals
as §1

In another experiment the test system is Alternaria solani. Briefly: Fungicidal action against Alternaria solani (early blight tomato/potato), microtiter growth inhibition. The procedure: Example B4: Fungicidal Action Against Alternaria solani (Early Blight Tomato/Potato)
Conidia of the fungus from cryogenic storage are directly mixed into nutrient broth (PDB potato dextrose broth). After placing a (DMSO) solution of the test compounds into a microtiter plate (96-well format) the nutrient broth containing the fungal spores is added. The test plates are incubated at 24° C. and the inhibition of growth is evaluated after 3 days. The expected fungicidal action is calculated according to the Colby method.

For a further experiment, the system named is Botrytis cinerea. Briefly: Fungicidal action against Botrytis cinerea (gray mould), microtiter growth inhibition. The procedure:
Example B2: Fungicidal Action Against Botrytis cinerea (Gray Mould)
as §1

Another experiment concerns Septoria tritici. Nature of the experiment: Fungicidal action against Septoria tritici (leaf blotch), microtiter growth inhibition. The procedure:
Example B3: Fungicidal Action Against Septoria tritici (Leaf Blotch)
as §1

A further experiment concerns Gaeumannomyces graminis. Nature of the experiment: Fungicidal action against Gaeumannomyces graminis (take-all of cereals), microtiter growth inhibition. The following applies: Gaeumannomyces graminis, compound alone; for inhibition at 0.0039 ppm / inhibition at 0.0313 ppm / inhibition at 0.0625 ppm: read-out: % activity. Here is the method: Example B7: Fungicidal Action Against Gaeumannomyces graminis (Take-all of Cereals)
Mycelial fragments of the fungus from cryogenic storage are directly mixed into nutrient broth (PDB potato dextrose broth). After placing a (DMSO) solution of the test compounds into a microtiter plate (96-well format) the nutrient broth containing the fungal spores is added. The test plates are incubated at 24 C and the inhibition of growth is evaluated after 4 days.

Setting [2] is: Pyrenophora teres, compound alone, 0.1250 ppm.
[3] abbreviates: Pyrenophora teres, compound alone.
Where [4] appears, read: Oculimacula yallundae, 0.0156 ppm, alone, read-out: % activity.
The mark [5] stands for this setting: Oculimacula yallundae, 0.1250 ppm, alone.
[6] abbreviates: Oculimacula yallundae, 0.2500 ppm, alone, read-out: % activity.
Where [7] appears, read: Oculimacula yallundae, 0.0313 ppm, alone.
The mark [8] stands for this setting: Zymoseptoria tritici, 0.0625 ppm, alone, read-out: % activity.
The mark [9] stands for this setting: Zymoseptoria tritici, 0.1250 ppm, alone, read-out: % activity.
Where [10] appears, read: Alternaria solani, 0.1250 ppm, alone.
Setting [11] is: Alternaria solani, 0.2500 ppm, alone, read-out: % activity.
Setting [12] is: Alternaria solani, 0.5000 ppm, alone, read-out: % activity.
Where [13] appears, read: Pyrenophora teres, compound alone, 0.0625 ppm.
The mark [14] stands for this setting: Oculimacula yallundae, read-out: % activity.
The mark [15] stands for this setting: Botrytis cinerea, read-out: % activity.
Where [16] appears, read: Zymoseptoria tritici, read-out: % activity.

In the case of `Fc1ccc([C@]2(Cn3cncn3)O[C@H]2c2ccccc2Cl)cc1` (racemic) [Epoxiconazole, epoxiconazole], in the experiment with Pyrenophora teres (setting [2]), the inhibition at 0.125 ppm is 20%. In the experiment on Pyrenophora teres (setting [3]), the inhibition at 0.5 ppm was 50% and the inhibition at 1 ppm turned out to be 70%. Moreover, in experiment [1] (setting [4]), the inhibition at 0.0156 ppm was found to be 0%. For the same compound, in experiment [1] (setting [5]), the inhibition at 0.125 ppm was found to be 70%. For the same compound, the inhibition at 0.25 ppm in experiment [1] (setting [6]) amounted to 90%.

For `CO/C=C(/C(=O)OC)c1ccccc1Oc1cc(Oc2ccccc2C#N)ncn1` [Azoxystrobin, azoxystrobin], the “% activity” value in the experiment with Pyrenophora teres (0.0313 ppm) is listed as 20%; with Pyrenophora teres (0.0625 ppm), 50%; in the experiment on Pyrenophora teres (0.1250 ppm), 70%; with Alternaria solani (0.0156 ppm, alone), 20%; in the experiment on Alternaria solani (0.0313 ppm, alone), 20%; with Alternaria solani (0.0625 ppm, alone) it was 20%. For the same compound, the “% activity” value is 50% with Alternaria solani (0.2500 ppm, alone); 50% with Alternaria solani (0.5000 ppm, alone); 0% in the experiment with Botrytis cinerea (0.1250 ppm, alone); 0% with Botrytis cinerea (0.2500 ppm, alone); 0% with Botrytis cinerea (0.5000 ppm, alone); 0% in the experiment with Botrytis cinerea (1.0000 ppm, alone). Moreover, the “% activity” value is listed as 0% in the experiment on Botrytis cinerea (2.0000 ppm, alone) and 70% with Septoria tritici (0.0625 ppm, alone).

With `N#Cc1c(Cl)c(Cl)c(Cl)c(C#N)c1Cl` [Chlorothalonil, chlorothalonil], in the experiment on Pyrenophora teres (setting [3]), the inhibition at 0.25 ppm worked out at 0% and the inhibition at 0.5 ppm amounted to 20%. Also, in experiment [1] (setting [4]), the inhibition at 0.0156 ppm came to 0%. The inhibition at 0.0313 ppm in experiment [1] (setting [7]) was found to be 50%. The same compound showed an inhibition at 0.125 ppm in experiment [1] (setting [5]) of 90%. Besides, the inhibition at 0.0625 ppm in the experiment with Septoria tritici (setting [8]) stood at 0%. Further, the inhibition at 0.125 ppm with Septoria tritici (setting [9]) came out at 0%.

For `CC(C1CC1)C(O)(Cn1cncn1)c1ccc(Cl)cc1` (stereo not shown) [Cyproconazole, cyproconazole], in the experiment with Gaeumannomyces graminis, the inhibition at 0.0039 ppm was 0%, the inhibition at 0.0313 ppm was 0% and the inhibition at 0.0625 ppm came to 20%. Further, the inhibition at 0.25 ppm in experiment [1] (setting [6]) was 70%. This compound registered an inhibition at 0.125 ppm with Alternaria solani (setting [10]) of 0%. The inhibition at 0.25 ppm in the experiment on Alternaria solani (setting [11]) is 0%. The inhibition at 0.5 ppm in the experiment with Alternaria solani (setting [12]) is 20%.

Consider `Cc1cc(C2CC2)nc(Nc2ccccc2)n1` [Cyprodinil, cyprodinil], for which the inhibition at 0.0313 ppm with Pyrenophora teres (Pyrenophora teres, compound alone, 0.0313 ppm) is 20%; in experiment [1] (setting [7]), 70%. Also, the inhibition at 0.0625 ppm in the experiment on Pyrenophora teres (setting [13]) stood at 20%. Further, the inhibition at 0.125 ppm came to 50% with Pyrenophora teres (setting [2]) and 0% with Septoria tritici (setting [9]). In addition, the inhibition at 0.25 ppm with Pyrenophora teres (setting [3]) turned out to be 50%; in the experiment with Alternaria solani (setting [11]) it was 50%; in the experiment with Septoria tritici (Zymoseptoria tritici, 0.2500 ppm, alone, read-out: % activity) it was 0%. Also, the inhibition at 0.0156 ppm in experiment [1] (setting [4]) amounted to 20%. Besides, the inhibition at 0.5 ppm in the experiment with Septoria tritici (Zymoseptoria tritici, 0.5000 ppm, alone, read-out: % activity) is 0%. Besides, the inhibition at 1 ppm in the experiment with Septoria tritici (Zymoseptoria tritici, 1.0000 ppm, alone) stood at 0%. Also, in the experiment on Septoria tritici (Zymoseptoria tritici, 2.0000 ppm, alone), the inhibition at 2 ppm was 0%.

For the compound `CC1COC(Cn2cncn2)(c2ccc(Oc3ccc(Cl)cc3)cc2Cl)O1` (stereo not shown) [Difenoconazole, difenoconazole], the inhibition at 0.0625 ppm with Pyrenophora teres (setting [13]) came out at 20%. The inhibition at 0.125 ppm with Pyrenophora teres (setting [2]) was 50%. Further, in the experiment with Pyrenophora teres (setting [3]), the inhibition at 0.25 ppm was 50%, the inhibition at 0.5 ppm is 70% and the inhibition at 1 ppm amounted to 70%. In addition, in the experiment with Gaeumannomyces graminis, the inhibition at 0.0039 ppm amounted to 0%, the inhibition at 0.0313 ppm amounted to 0% and the inhibition at 0.0625 ppm stood at 0%. This compound also came in with an inhibition at 0.0156 ppm in the experiment on Gaeumannomyces graminis (0.0156 ppm) of 0%. The compound also returned an inhibition at 0.125 ppm in experiment [1] (setting [5]) of 50%. This compound also had an inhibition at 0.0313 ppm with Septoria tritici (Zymoseptoria tritici, 0.0313 ppm, alone) of 50%. Moreover, the inhibition at 0.0625 ppm with Septoria tritici (setting [8]) stood at 90%.

`CC(Cc1ccc(C(C)(C)C)cc1)CN1CCCCC1` (stereo not shown) [Fenpropidin, fenpropidin]: the inhibition at 0.0625 ppm with Pyrenophora teres (setting [13]) was 0%; in experiment [1] (Oculimacula yallundae, 0.0625 ppm, alone), 0%. Also, the inhibition at 0.125 ppm (with Pyrenophora teres (setting [2]); in experiment [1] (setting [5]); with Alternaria solani (setting [10])) was 0% in each case. Besides, the inhibition at 0.25 ppm (in the experiment with Pyrenophora teres (setting [3]); in experiment [1] (setting [6]); in the experiment on Alternaria solani (setting [11])) was 0% throughout. Also, the inhibition at 0.5 ppm was determined as 0% with Pyrenophora teres (setting [3]); 0% in the experiment on Alternaria solani (setting [12]); 0% with Botrytis cinerea (Botrytis cinerea, 0.5000 ppm, alone). For the same compound, the inhibition at 2 ppm with Pyrenophora teres (Pyrenophora teres, compound alone, 2.0000 ppm) was determined as 0%; in the experiment on Botrytis cinerea (Botrytis cinerea, 2.0000 ppm, alone), 0%. Also, the inhibition at 0.0156 ppm in experiment [1] (setting [4]) came to 0%. For the same compound, the inhibition at 0.0313 ppm in experiment [1] (setting [7]) was 0%. Also, the inhibition at 1 ppm was determined as 0% in the experiment with Alternaria solani (Alternaria solani, 1.0000 ppm, alone) and 0% in the experiment on Botrytis cinerea (Botrytis cinerea, 1.0000 ppm, alone).

With `N#Cc1c[nH]cc1-c1cccc2c1OC(F)(F)O2` [Fludioxonil, fludioxonil], the inhibition at 0.0625 ppm with Pyrenophora teres (Pyrenophora teres) was found to be 20%; with Alternaria solani (Alternaria solani, read-out: % activity, 0.0625 ppm, alone), 20%; with Botrytis cinerea (setting [15]), 20%; in the experiment with Septoria tritici (setting [16]), 0%. In addition, the values for the inhibition at 0.125 ppm in the experiment on Pyrenophora teres (Pyrenophora teres), with Botrytis cinerea (setting [15]) and in the experiment on Septoria tritici (setting [16]) were 70%, 90% and 0%, respectively. The inhibition at 0.0078 ppm in experiment [1] (setting [14]) was determined as 0%; with Alternaria solani (Alternaria solani, read-out: % activity, 0.0078 ppm, alone), 0%. The inhibition at 0.0156 ppm came to 0% in experiment [1] (setting [14]) and 0% in the experiment with Alternaria solani (Alternaria solani, read-out: % activity, 0.0156 ppm, alone). The inhibition at 0.25 ppm in experiment [1] (setting [14]) was found to be 20%; with Alternaria solani (Alternaria solani, read-out: % activity, 0.2500 ppm, alone), 50%. For the same compound, the inhibition at 0.5 ppm was determined as 20% in experiment [1] (setting [14]) and 70% in the experiment with Alternaria solani (Alternaria solani, read-out: % activity, 0.5000 ppm, alone). In experiment [1] (setting [14]), the inhibition at 1 ppm amounted to 20%. Besides, the inhibition at 2 ppm in experiment [1] (setting [14]) stood at 20%. In addition, the inhibition at 0.0313 ppm with Alternaria solani (Alternaria solani, read-out: % activity, 0.0313 ppm, alone) came to 0%; in the experiment on Botrytis cinerea (setting [15]), 0%.

On to `CO/C=C(/C(=O)OC)c1ccccc1COc1cccc(C(F)(F)F)n1` [Picoxystrobin, picoxystrobin], for which the “% activity” value worked out at 50% in the experiment with Pyrenophora teres (0.0313 ppm); 70% with Pyrenophora teres (0.0625 ppm); 0% in experiment [1] (0.0078 ppm, alone); 20% in experiment [1] (0.0156 ppm, alone); 50% in experiment [1] (0.0313 ppm, alone); 50% in experiment [1] (0.0625 ppm, alone). For the same compound, the “% activity” value turned out to be 50% in experiment [1] (0.1250 ppm, alone); 50% in experiment [1] (0.2500 ppm, alone); 50% in experiment [1] (0.5000 ppm, alone); 70% in experiment [1] (1.0000 ppm, alone); 0% with Alternaria solani (0.0078 ppm, alone); 20% with Alternaria solani (0.0156 ppm, alone). The “% activity” value stood at 20% in the experiment with Alternaria solani (0.0313 ppm, alone); 50% in the experiment on Alternaria solani (0.0625 ppm, alone); 50% with Alternaria solani (0.1250 ppm, alone); 50% in the experiment on Alternaria solani (0.2500 ppm, alone); 50% in the experiment with Alternaria solani (0.5000 ppm, alone); 50% with Alternaria solani (2.0000 ppm, alone). For the same compound, the “% activity” value in the experiment on Botrytis cinerea (0.0625 ppm, alone) is recorded as 0%; with Botrytis cinerea (0.1250 ppm, alone), 0%; in the experiment with Botrytis cinerea (0.2500 ppm, alone), 0%; with Botrytis cinerea (0.5000 ppm, alone), 0%; with Botrytis cinerea (1.0000 ppm, alone), 0%; in the experiment with Botrytis cinerea (2.0000 ppm, alone), 0%. The “% activity” value with Septoria tritici (0.0156 ppm, alone) was determined as 20%; in the experiment on Septoria tritici (0.0313 ppm, alone), 70%.

`CC(C)(C)C(O)(CCc1ccc(Cl)cc1)Cn1cncn1` (stereo not shown) [Tebuconazole]: the inhibition at 0.125 ppm in the experiment on Gaeumannomyces graminis (0.1250 ppm) was 50%.
